Here are results for two molecules from article PMC9117149, “USP14-regulated allostery of the human proteasome by time-resolved cryo-EM” (Nature, 2022).

The structures appear in SMILES notation. Numbered stars: 1 amine (or outer) side, 2 acyl side, 3 side chain; on linkers, the order of the positions; unused ones are H or OH. Peptide text beside a SMILES is read from it. * marks the point of attachment. AMC = Cc1cc(=O)oc2cc(N*)ccc12; Suc = O=C(CCC(=O)[*:2])[*:1]

In experiment [1] the test system is T1, human 26S proteasome, AAA-ATPase motor (RPT1-RPT6).
T1 construct: gene PSMC2
To be noted: 0.5 mM ATP, 5 mM MgCl2, pH 7.5, 37 °C, with 300 nM Ubn-Sic1PY and RPN13; USP14-free.

Experiment [2] addresses T2, human 26S proteasome (peptidase activity) (Homo sapiens, UniProt P28074).
T2 construct: gene PSMB5; 20S core particle; with Proteasome subunit beta type-1; Proteasome subunit beta type-2; Proteasome subunit beta type-3; Proteasome subunit beta type-4; Proteasome subunit beta type-6; Proteasome subunit beta type-7
T2 sequence (P28074 60-263): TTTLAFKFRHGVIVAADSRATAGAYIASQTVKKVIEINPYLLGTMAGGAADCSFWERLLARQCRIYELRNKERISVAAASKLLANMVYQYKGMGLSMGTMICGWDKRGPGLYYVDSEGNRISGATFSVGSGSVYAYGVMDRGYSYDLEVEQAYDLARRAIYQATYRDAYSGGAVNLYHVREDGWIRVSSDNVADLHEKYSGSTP
Briefly: AMC fluorescence. Conditions: 10 μM substrate, 0.1 mM ATP, 0.5 mM MgCl2, 100 mM KCl, pH 7.5, 37 °C; USP14-free (also with USP14 variants). Format: biochemical.

T1 sequence (P35998 2-433): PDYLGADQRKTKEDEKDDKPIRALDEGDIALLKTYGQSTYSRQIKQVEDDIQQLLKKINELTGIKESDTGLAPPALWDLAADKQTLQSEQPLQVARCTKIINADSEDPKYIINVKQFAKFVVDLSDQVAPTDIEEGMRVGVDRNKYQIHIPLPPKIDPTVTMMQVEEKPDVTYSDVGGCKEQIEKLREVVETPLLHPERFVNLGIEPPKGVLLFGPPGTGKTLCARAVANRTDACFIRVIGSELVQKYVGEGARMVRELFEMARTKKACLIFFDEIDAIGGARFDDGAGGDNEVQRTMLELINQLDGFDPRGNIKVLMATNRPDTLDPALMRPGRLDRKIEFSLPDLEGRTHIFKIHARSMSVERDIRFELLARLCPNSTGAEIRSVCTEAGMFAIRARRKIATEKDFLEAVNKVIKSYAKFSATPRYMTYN
T1 sequence (P62191 2-440, further chain): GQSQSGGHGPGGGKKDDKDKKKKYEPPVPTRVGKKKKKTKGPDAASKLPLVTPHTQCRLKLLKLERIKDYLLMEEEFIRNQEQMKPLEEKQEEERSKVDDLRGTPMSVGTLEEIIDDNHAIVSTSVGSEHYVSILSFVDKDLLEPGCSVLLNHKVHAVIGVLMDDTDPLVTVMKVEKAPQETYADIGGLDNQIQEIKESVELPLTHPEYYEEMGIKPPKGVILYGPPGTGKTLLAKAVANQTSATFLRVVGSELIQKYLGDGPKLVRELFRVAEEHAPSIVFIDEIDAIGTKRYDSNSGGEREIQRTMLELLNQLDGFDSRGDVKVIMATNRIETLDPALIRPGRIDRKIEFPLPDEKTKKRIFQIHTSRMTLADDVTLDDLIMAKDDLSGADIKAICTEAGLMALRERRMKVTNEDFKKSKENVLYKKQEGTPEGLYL
T1 sequence (P43686 whole entry, further chain): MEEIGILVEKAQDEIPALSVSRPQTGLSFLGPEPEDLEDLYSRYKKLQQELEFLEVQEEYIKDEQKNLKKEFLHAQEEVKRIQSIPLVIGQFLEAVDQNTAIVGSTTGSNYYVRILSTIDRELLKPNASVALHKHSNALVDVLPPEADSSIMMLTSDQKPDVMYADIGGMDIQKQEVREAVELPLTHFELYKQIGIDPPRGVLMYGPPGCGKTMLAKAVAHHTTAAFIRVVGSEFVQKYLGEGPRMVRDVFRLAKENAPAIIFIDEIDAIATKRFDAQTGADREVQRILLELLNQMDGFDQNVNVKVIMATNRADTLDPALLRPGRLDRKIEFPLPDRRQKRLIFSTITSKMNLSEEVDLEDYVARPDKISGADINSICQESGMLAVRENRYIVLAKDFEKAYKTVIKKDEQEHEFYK
T1 sequence (P62333 whole entry, further chain): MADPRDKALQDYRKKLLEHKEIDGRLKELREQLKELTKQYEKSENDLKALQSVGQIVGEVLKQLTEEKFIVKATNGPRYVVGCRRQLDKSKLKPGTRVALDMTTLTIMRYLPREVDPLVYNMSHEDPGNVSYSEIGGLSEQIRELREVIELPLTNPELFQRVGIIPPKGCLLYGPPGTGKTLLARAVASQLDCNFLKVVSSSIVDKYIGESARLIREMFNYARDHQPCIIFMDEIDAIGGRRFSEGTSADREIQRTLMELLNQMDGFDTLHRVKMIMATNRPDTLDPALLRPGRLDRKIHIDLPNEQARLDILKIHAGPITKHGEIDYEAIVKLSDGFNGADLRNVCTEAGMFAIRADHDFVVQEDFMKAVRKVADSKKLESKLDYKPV
T1 sequence (P17980 whole entry, further chain): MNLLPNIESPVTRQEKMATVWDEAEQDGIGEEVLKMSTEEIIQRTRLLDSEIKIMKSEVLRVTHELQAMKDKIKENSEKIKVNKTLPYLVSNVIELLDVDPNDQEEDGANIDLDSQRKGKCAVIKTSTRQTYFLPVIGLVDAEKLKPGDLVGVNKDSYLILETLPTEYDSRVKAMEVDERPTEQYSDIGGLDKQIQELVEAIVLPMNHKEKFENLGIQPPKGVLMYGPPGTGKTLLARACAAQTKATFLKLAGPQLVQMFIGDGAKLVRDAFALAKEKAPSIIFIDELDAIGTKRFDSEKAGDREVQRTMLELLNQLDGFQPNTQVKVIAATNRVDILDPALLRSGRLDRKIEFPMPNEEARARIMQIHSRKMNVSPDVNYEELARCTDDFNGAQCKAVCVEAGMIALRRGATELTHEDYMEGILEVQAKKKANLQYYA
T1 sequence (P62195 2-406, further chain): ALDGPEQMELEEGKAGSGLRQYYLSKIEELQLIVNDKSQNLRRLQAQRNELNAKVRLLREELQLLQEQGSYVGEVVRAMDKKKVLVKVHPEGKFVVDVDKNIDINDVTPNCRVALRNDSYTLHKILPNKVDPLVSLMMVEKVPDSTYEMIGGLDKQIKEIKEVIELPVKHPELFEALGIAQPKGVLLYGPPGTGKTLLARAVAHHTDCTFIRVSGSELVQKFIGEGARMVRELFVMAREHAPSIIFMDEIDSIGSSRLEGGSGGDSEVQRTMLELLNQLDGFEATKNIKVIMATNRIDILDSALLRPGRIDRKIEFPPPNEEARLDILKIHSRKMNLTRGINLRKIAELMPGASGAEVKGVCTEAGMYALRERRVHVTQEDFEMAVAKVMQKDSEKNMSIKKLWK

On to `Nc1ncnc2c1ncn2[C@@H]1O[C@H](COP(=O)(O)OP(=O)(O)OP(=O)(O)O)[C@@H](O)[C@H]1O` [ATP], for which the “malachite green phosphate release” value in experiment [1] is reported as “ATPase activity was quantified using malachite green phosphate assay kits”.
On to `Cc1cc(=O)oc2cc(NC(=O)[C@H](Cc3ccc(O)cc3)NC(=O)[C@@H](NC(=O)[C@H](CC(C)C)NC(=O)[C@H](CC(C)C)NC(=O)CCC(=O)O)C(C)C)ccc12` [Suc-LLVY-AMC] (Suc-LLVY-{AMC}), for which, in experiment [2], the AMC fluorescence result is “Peptide hydrolysis by the human proteasomes was measured using fluorogenic substrate Suc-LLVY-AMC”.
